Experimental findings from patent publication US20220160703A1, “TUMOR-SELECTIVE COMBINATION THERAPY” (The Board of Regents of The University of Texas System, priority 2019, published 2022) are described below.

For one series, the system named is A549 tumor. As to the kind of experiment: A549 xenograft in immune-reconstituted C57BL/6 Rag1−/− mice. The series is classed as in vivo. The settings on record: β-lap 0.2 mg i.t. four times. Here is the method: FIGS. 2A-F. β-Lap's antitumor effect is CD8^+ T cell dependent. (FIG. 2A) MC38 cells were subcutaneously transplanted into C57BL/6 WT (n=5-6/group) and Rag1 KO mice (n=5/group), respectively. Tumor bearing mice were treated with β-lap (0.3 mg, i.t.) every other day for four times. Numbers of tumor free mice after treatment were shown. (FIG. 2B) MC38 tumor bearing C57BL/6 mice (n=5/group) were treated with β-lap (0.3 mg, i.t.) every other day for four times. For CD8^+ T cell depletion, 200 μg of anti-CD8 antibodies were intraperitoneally injected four times at three days interval during the treatment. (FIG. 2C) TC-1 tumor bearing C57BL/6 mice (n=4-5/group) were treated with β-lap (0.1 mg, i.t.) for four times with or without anti-CD8 antibodies. (FIG. 2D) Naïve (n=5/group) and β-lap cured MC38 tumor free (n=7/group) C57BL/6 mice were rechallenged subcutaneously with 3×10^6 MC38 cells on the opposite site from the primary tumor 30 days after complete rejection, and tumor growth curve was monitored. […] Tumor growth was measured twice a week. Data are shown as mean±SEM from three independent experiments. **P<0.01, ***P<0.001, ****P<0.0001 determined by two-way ANOVA.
Immune reconstituted mouse models. […] Tumor volumes were measured at least twice weekly.

In another series the test system is CD8 T cells. As to the kind of experiment: Direct effect on CD8 T cells (apoptosis, proliferation, IFNγ). The format is cell-based, mice. The settings on record: tumor lethal dose of β-lap. The procedure:
FIGS. 23A-D. IB-DNQ-mediated antitumor effect influences tumor microenvironment. 6×10^5 MC38 cells were subcutaneously transplanted into C57BL/6 mice (n=3/group). Tumor-bearing mice were treated with IB-DNQ (12 mg/kg, i.t.) or vehicle every other day for four times after tumor volumes reached to 50 mm^3. Tumors were collected 24 h later after the last IB-DNQ injection. (FIG. 23A) Flow cytometry analysis of tumor-infiltrating immune cells from vehicle and IB-DNQ treated tumors. (FIG. 23B) Quantification of immune populations from vehicle and IB-DNQ treated tumors. (FIG. 23C) T cell proliferation in the presence/absence of IB-DNQ. CFSE labeled splenocytes were treated with lethal dose IB-DNQ for 4 h followed by washing and stimulation with anti-CD3 (1 μg/ml) and anti-CD28 (2 μg/ml) for 48 h, proliferative CD8 T cells were then analyzed by flow cytometry assay. (FIG. 23D) Effect of IB-DNQ on T cells. […] 24 h later, cell death was analyzed by flow cytometry. […]
I3-Lap-induced-antitumor effect depends on dendritic cell-mediated T cell cross-priming. […] To rule out of direct effect of β-lap on CD8 T cells, the inventors evaluated the expression of NQO1 on CD8 T cells and the effect of β-lap on CD8 T cell survival, proliferation and function. […] IFNγ secretion was measured to evaluate the capability of DCs to prime the antigen specific T cells.

Regarding `CC1(C)CCC2=C(O1)c1ccccc1C(=O)C2=O` [β-lap, β-lapachone], the “tumor growth without T cell transfer” value in the series with A549 tumor (no OT-1 LN cells) was “only partially inhibited”. This molecule came in with a tumors completely rejected in the series on A549 tumor (with 2×10^6 OT-1 LN cells) of 50%. In addition, the “CD8 T cell apoptosis, anti-CD3/CD28 stimulated proliferation and IFNγ production” value with CD8 T cells is “no effect”.
